Laboratory results taken from a melting point compilation (Tetko et al.; mined from patent text by program, amines drawn as free bases though some values may be those of a salt).

`CCOC(=O)Nc1cc([N+](=O)[O-])ccc1F` gave a melting point of 90 to 92 °C.
With `Cc1ccc(N2CCN(Cc3ccc4c(c3)OCC(=O)N4)CC2)cc1` the melting point was 208 to 210 °C.
`CCOC(=O)c1c(CN2CCOCC2)nc2cc(OCC)c(OCC)cc2c1-c1ccc(OC)c(OC)c1` showed a melting point of 147 to 148 °C.
For `C=C1SC(=S)N(c2ccc3cc(-c4ccc(OC)c(-c5ccccc5)c4)ccc3c2)C1=O`, the melting point was 266 to 269 °C.
Work on `CC(C(=O)O)c1cccc2c(-c3ccccc3)onc12` (centres undefined) yielded a melting point of 140 to 144 °C.
`Cc1c(C)c(N2CCN(c3ccc(C#N)cc3)CC2)c(C)c2c1OC(C)(C)C2` showed a melting point of 255 to 257 °C.
For `O=S(=O)(/C=C/c1ccc(Cl)cc1)CS(=O)(=O)/C=C/c1ccc(Cl)cc1`, the melting point was 178 to 180 °C.
Work on `CC(=O)NC(=S)N1CCSC1c1ccccc1OCCN1CC=C(c2cccc(F)c2)CC1` (centres undefined) yielded a melting point of 135 to 136 °C.
With `O=C(CCl)Nc1ccc2c(c1NC(=O)c1ccccc1C(F)(F)F)C(=O)c1ccccc1C2=O` the melting point was 248 to 250 °C.
With `COC(=O)C=Cc1ccc(F)cc1` the melting point was 43 to 46 °C.
Work on `CNC(=O)c1cnn2c(C(=O)N3CCN(C(=O)OC(C)(C)C)CC3)c(Cc3cccc(F)c3C)c(-c3ccccc3)c2c1` yielded a melting point of 153 to 154 °C.
Work on `C=CCn1nnc2cc(F)c(-n3c(=O)cc(C(F)(F)F)n(C)c3=O)cc21` yielded a melting point of 136 to 138 °C.
In the case of `CC(C)c1nn(-c2ccc(C(F)(F)F)cn2)cc1CCCOc1cc(CCC(=O)O)n(C2CCCCC2)n1`, the melting point is reported as 166 to 167 °C.
Compound `O=C(CBr)c1csc(C(F)(F)F)n1` has a melting point of 36 to 37 °C.
`CCCn1cc(C(=O)OCC)c(=O)c2cc(CN3CCOCC3)oc21` gave a melting point of 195 to 196 °C.
For `CCc1c(Oc2cnc(N)nc2N)cc(Br)c2c1OCCO2`, the melting point was 291 to 293 °C.
Work on `NS(=O)(=O)c1ccc(-c2[nH]c3ccccc3c2-c2ccc(Br)cc2)cc1` yielded a melting point of 277 to 279 °C.
In the case of `CCOC(=O)Cc1ccc2cc(O)ccc2c1`, the melting point is reported as 81 to 83 °C.
Compound `CCNC(=O)c1ccc(-n2nnc(C(=O)NC3CC3)c2CCCCCF)cc1` has a melting point of 150 °C.
`CC1C(Cl)(Cl)C1(C)C(=O)C(N)=O` (centres undefined) showed a melting point of 87 to 89 °C.
`CC(C)Cc1cc(S(=O)(=O)Cl)c(C(C)C)cc1Cl` gave a melting point of 90 to 94 °C.
Compound `CS(=O)(=O)c1ccc(-c2cnn(CC(F)(F)F)c(=O)c2-c2ccc(Cl)c(Cl)c2)cc1` has a melting point of 197 to 198 °C.
In the case of `Cc1cc(N)c2nccc(Cl)c2c1`, the melting point is reported as 115 to 116 °C.
For `CC1(C)c2cc(OS(C)(=O)=O)ccc2OC1OC(=O)c1ccccc1` (centres undefined), the melting point was 102 to 104 °C.
For `CCCCCCCCCCCCCCCCCCOc1cccc(C(=O)O)c1OCCCOc1ccc(O)cc1`, the melting point was 81 to 83 °C.
Compound `CC(NC(=O)C1=C(C(=O)Nc2cc(OC3CCCCC3)c(Cl)cc2F)CCCC1)c1ccccc1` (centres undefined) has a melting point of 156 to 159 °C.
Compound `CCOC(=O)C1=C(C=O)Nc2ccnc(OC(C)C)c2C1c1ccccc1` (centres undefined) has a melting point of 132 to 135 °C.
With `CNC(=O)N1N=C(c2ccc(N)cc2)c2cc(Br)ccc2CC1C` (centres undefined) the melting point was 121 to 124 °C.
With `C#CCOC(=O)Cn1cccc1-c1nc(-c2ccc(OC)cc2)c(-c2ccc(OC)cc2)s1` the melting point was 100 to 103 °C.
Compound `CCOC(=O)c1cn(N2CCOCC2)c2ccc(CN3CCOCC3)cc2c1=O` has a melting point of 209 to 211 °C.
`O=C(O)CCCCCCCC(=O)c1c(-c2ccc(O)cc2)sc2cc(O)ccc12` gave a melting point of 154 to 158 °C.
With `COC[C@H](C1CC1)n1cc(Br)nc(Br)c1=O` the melting point was 98.5 to 100 °C.
With `O=C(NCc1ccccn1)Nc1cc(-n2cc(-c3ccccc3)oc2=O)ccn1` the melting point was 208 to 209 °C.
For `Cn1nnnc1SCc1c(S(C)(=O)=O)ccc(C(=O)C2=C(Sc3ccccc3)CCCC2=O)c1Cl`, the melting point was 76 to 87 °C.
With `CCOC(=O)c1cnn(-c2c(Cl)cc(Cl)cc2Cl)c1O` the melting point was 228 °C.
Work on `CS(=O)(=O)c1ccc(-n2cnc3ccc(-c4nnc(CC(F)(F)F)o4)cc32)cc1` yielded a melting point of 229 to 232 °C.
In the case of `CCOC(=O)c1cc(Br)cc(C(=O)OCC)n1`, the melting point is reported as 95 to 96 °C.
`COc1cc(OC)nc(Oc2cccc(Cl)c2C(=O)ON(C)C)n1` showed a melting point of 80 to 81 °C.
For `CCCC1=C(C(=O)OCC)C(c2ccccc2OC)c2c[nH]nc2N1` (centres undefined), the melting point was 169 °C.
